The values that follow come from patent US8313752B2, “Macrocyclic lactone combination compositions, vaccines and methods for producing same” (Merial Limited, priority 2009, dated 2012).

Several values for one entry are separate records, joined by “and”; a condition that tells them apart may be missing. Identical values can stand only once. Like-named read-outs stand apart in the source and are kept apart here.

Data set [1] in a line: ML residues in milk of lactating dairy cows after single IM dose of ML/vaccine combination (LC-MS/MS). The format is in vivo, Dairy cows (Friesian and Friesian cross). To be noted: for Residues in milk at 7 days after treatment relative to ACVM MRLs / Residues in milk at 21 days after treatment relative to LOQ: 0.3 and 0.4 mg/kg IM; for concentration at 21 day / concentration at 7 day / concentration at 14 day: female, Friesian and Friesian cross, cattle, intramuscular; for concentration at 21 day / ML residue in milk, Day 7 / ML residue in milk, Day 14 / ML residue in milk, Day 21 / concentration at 7 day / concentration at 14 day / ML residue in milk fat, Day 7 / ML residue in milk fat, Day 14 / ML residue in milk fat, Day 21: individual cows. The procedure: (§1) Study Objectives: 1) To measure ML residues in milk and tissues of lactating dairy cows after a single dose of an experimental formulation of eprinomectin, ivermectin, moxidectin or doramectin combined with an inactivated rotavirus, coronavirus and Escherichia coli vaccine was administered by intramuscular injection at 0.3 and 0.4 mg macrocyclic lactone/kg bodyweight. 2) To evaluate local tissue irritancy of the experimental formulations when administered to cattle by intramuscular injection.
Experimental formulations of each of four macrocyclic lactones were separately combined with equal parts of a registered vaccine, Rotavec® Corona (Schering-Plough). The recommended dose of Rotavec® Corona is 2 mL per animal, which was diluted to produce 4 mL of ML/vaccine combination. Each ML/vaccine combination contained 40 mg/mL macrocyclic lactone.
Methods: On day −5, fifty-four animals were identified for screening and were checked for mastitis by palpation of the mammary gland, visualization of the mammary secretions and Rapid Mastitis Test (RMT, Immucell, Portland, Me.). Individual milk samples were collected for somatic cell count (SCC) and thirty-three animals that met the inclusion criteria were selected for the study. Of the thirty-three animals, the cow with the highest average daily milk yield, as assessed over a seven-day period, was allocated as the control. The remaining thirty-two animals were ranked from highest to lowest on average daily milk yield, over the same time period, and divided into four blocks of eight animals each. A random number was generated for each animal using the Microsoft Excel random number generator function. Within each block, the lowest random number was allocated to Group 1, the second lowest to Group 2 and sequentially through to Group 8, creating eight groups of four animals each (Table 18).
On Day 0, the cows were weighed and blood samples were collected from all animals in Groups 1 and 2 for use in a subsequent plasma eprinomectin assay. The blood samples were stored frozen at or colder than −18° C. pending laboratory analysis. Each animal was treated with the indicated formulation at the appropriate dose rate. Doses were calculated based upon the animal's Day 0 bodyweight to provide approximately 40 mg ML/mL. Calculated doses were rounded up to the nearest 0.2 mL.
(§2) The formulations were administered by deep intramuscular injection in the anterior neck region. Injection sites were clean and dry and inspected for lesions prior to injection. Injections were administered with a different 10 mL syringe for each product. A sterile 18 gauge 1½ inch needle was used for each injection. The time of treatment was recorded. Evidence of pain on injection was assessed.
Blood samples were collected from all animals in Groups 1 and 2 for plasma eprinomectin assay on Days 1, 3 and 7 and stored frozen as described. The time of blood collection was recorded. Herd test equipment (De Laval) was used to collect an approximately 2% sample representative of the entire milking for each individual cow at the morning milking on each of Days 1-10 following treatment, and at the morning milking on Days 14, 21 and 35. Duplicate subsamples were decanted for each cow in Groups 1-4 and 7-9 and triplicate subsamples were decanted for each cow in Groups 5-6. Each sample from treated animals measured approximately 30 mL. The start and finish times for each milking of the 33 study animals were recorded to give an estimate of the actual time of milk sample collection.
The study animals were milked after the main herd. The milk line was thoroughly flushed with cold water prior to milking the study animals. The herd test equipment was cleaned between samplings. It was washed “in-line” with the milking plant wash. Sample vessels were then further cleaned through a dishwasher. The sampler connections were further cleaned by soaking in hot acid, then rinsed. Milk yields at each milking at which samples were collected were measured and recorded. […]

For data set [2] the following is noted: cited from earlier work.
The conditions of data set [3]: lactating cattle; cited from earlier work.
The test system of another data set is cattle. In words: Local tissue irritancy / injection site reactions after intramuscular injection. The data set is classed as in vivo, Dairy cows (Friesian and Friesian cross). The following applies: for Injection site reactions, Count, Day 1 / Injection site reactions, Count, Day 3 / Injection site reactions, Count, Day 7 / Injection site reactions, Count, Day 14 / Injection site reactions, Count, Day 21: cows with reaction in group of 4; for Animals with injection site reactions that persisted at least until 21 days after treatment: group of 4 cows. On the procedure:
as §1, §2
Injection sites were examined by inspection and palpation at the morning milking on Days 1, 3, 7 and 14. Any visible or palpable reactions were described and measured (width, length and depth). Reactions that persisted after day 14 were re-evaluated on Day 21.

Where [4] appears, read: milk, 0.3 mg/kg, nominal 0.3 mg/kg single IM dose of ML/Rotavec Corona combination, milk (whole milk), read-out: ML residue in milk, Day 21.
[5] abbreviates: nominal 0.3 mg/kg single IM dose of ML/Rotavec Corona combination, milk (whole milk).
Where [6] appears, read: nominal 0.4 mg/kg single IM dose of ML/Rotavec Corona combination, milk (whole milk).
[7] abbreviates: administered topically to cattle.
Where [8] appears, read: nominal 0.3 mg/kg single IM dose of ML/Rotavec Corona combination, milk fat.
The mark [9] stands for this setting: nominal 0.4 mg/kg single IM dose of ML/Rotavec Corona combination, milk fat.

For `CO[C@H]1C[C@H](O[C@H]2[C@H](C)O[C@@H](O[C@@H]3/C(C)=C/C[C@@H]4C[C@@H](C[C@]5(C=C[C@H](C)[C@@H](C6CCCCC6)O5)O4)OC(=O)[C@@H]4C=C(C)[C@@H](O)[C@H]5OC/C(=C\C=C\[C@@H]3C)[C@]54O)C[C@@H]2OC)O[C@@H](C)[C@@H]1O` [Doramectin], in data set [1], the “Residues in milk at 7 days after treatment relative to ACVM MRLs” value is reported as “near or above the ACVM MRLs” and the “Residues in milk at 21 days after treatment relative to LOQ” value is reported as “above the LOQ”. Besides, the concentration at 21 day in data set [1] (setting [4]) is under 1 ng/g. For the same compound, the concentration at 21 day in data set [1] (milk, 0.4 mg/kg, nominal 0.4 mg/kg single IM dose of ML/Rotavec Corona combination, milk (whole milk), read-out: ML residue in milk, Day 21) is 1 ng/g. Moreover, in data set [1] (setting [5]), the “ML residue in milk, Day 7” value was 0.0058 mg/kg and 0.0037 mg/kg and 0.0077 mg/kg and 0.0079 mg/kg; the “ML residue in milk, Day 14” value is <0.0010 mg/kg and 0.0012 mg/kg and 0.0031 mg/kg and 0.0015 mg/kg; the “ML residue in milk, Day 21” value is <0.0010 mg/kg (2×) and 0.0020 mg/kg. In addition, in data set [1] (setting [6]), the “ML residue in milk, Day 7” value was 0.014 mg/kg and 0.0061 mg/kg and 0.011 mg/kg and 0.0056 mg/kg; the “ML residue in milk, Day 14” value was 0.0025 mg/kg (2×) and 0.0028 mg/kg and <0.0010 mg/kg; the “ML residue in milk, Day 21” value is 0.0014 mg/kg (2×) and <0.0010 mg/kg.

For the compound `CCC(C)C1OC2(C=CC1C)CC1CC(CC=C(C)C(OC3CC(OC)C(OC4CC(OC)C(NC(C)=O)C(C)O4)C(C)O3)C(C)C=CC=C3COC4C(O)C(C)=CC(C(=O)O1)C34O)O2` (stereo not shown) [Eprinomectin], in data set [2] (setting [7]), the “Parent compound share of residues in feces” value is listed as “more than 85%” and the “Parent compound share of residues in tissues” value is reported as 90%. Besides, the Milk-plasma coefficient in data set [2] (cattle) is at most 0.2. In data set [3], the “Elimination in milk, fold less than ivermectin or moxidectin” value is 50 fold and the “Share of the total dose eliminated in the milk” value is given as 0.1%. For the same compound, in the data set with cattle (0.3 mg/kg IM), the “Injection site reactions, Count, Day 1” value turned out to be 0; the “Injection site reactions, Count, Day 3” value amounted to 1; the “Injection site reactions, Count, Day 7” value came to 1; the “Injection site reactions, Count, Day 14” value is on record as 1. In the data set on cattle (0.3 mg/kg IM), the “Injection site reactions, Count, Day 21” value amounted to 1 and the “Animals with injection site reactions that persisted at least until 21 days after treatment” value was “One”. In addition, in the data set on cattle (0.4 mg/kg IM), the “Injection site reactions, Count, Day 1” value is on record as 2; the “Injection site reactions, Count, Day 3” value was 2; the “Injection site reactions, Count, Day 7” value turned out to be 1; the “Injection site reactions, Count, Day 14” value is given as 1. In the data set with cattle (0.4 mg/kg IM), the “Injection site reactions, Count, Day 21” value is reported as 1 and the “Animals with injection site reactions that persisted at least until 21 days after treatment” value is “One”. Moreover, the “Residues in milk at 14 days after treatment relative to LOQ” value in data set [1] (all study animals (0.3 and 0.4 mg/kg IM)) is on record as “below the limit of quantitation (LOQ)”. Besides, the “Residues in milk at 7 days after treatment” value in data set [1] (all study animals (0.3 and 0.4 mg/kg IM), compared with MRL) is under 0.02 mg/kg. Further, in data set [1] (estimated from residue data relative to the MRLs that apply in Europe), the “Withholding period (milk)” value was 7 days. Moreover, in data set [1] (setting [5]), the “ML residue in milk, Day 14” value is under 0.0010 mg/kg and the “ML residue in milk, Day 21” value is under 0.0010 mg/kg. In addition, the “ML residue in milk, Day 7” value in data set [1] (nominal 0.3 mg/kg single IM dose of ML/Rotavec Corona combination, milk (whole milk), listed as Eprinomectin B1a) was 0.0012 mg/kg and 0.0017 mg/kg and <0.0010 mg/kg and 0.0023 mg/kg. Also, in data set [1] (setting [6]), the “ML residue in milk, Day 14” value was under 0.0010 mg/kg and the “ML residue in milk, Day 21” value was under 0.0010 mg/kg. Further, the “ML residue in milk, Day 7” value in data set [1] (nominal 0.4 mg/kg single IM dose of ML/Rotavec Corona combination, milk (whole milk), listed as Eprinomectin B1a) was <0.0010 mg/kg (2×) and 0.0021 mg/kg and 0.0013 mg/kg.

For the compound `CO/N=C1\C[C@]2(C[C@@H]3C[C@@H](C/C=C(\C)C[C@@H](C)/C=C/C=C4\CO[C@@H]5[C@H](O)C(C)=C[C@@H](C(=O)O3)[C@]45O)O2)O[C@H](/C(C)=C/C(C)C)[C@H]1C` [Moxidectin, moxidectin], the “Residues in milk at 7 days after treatment relative to ACVM MRLs” value in data set [1] is on record as “near or above the ACVM MRLs”. The “Residues in milk at 21 days after treatment relative to LOQ” value in data set [1] is reported as “above the LOQ”. In addition, the concentration at 7 day stood at 800 ng/g in data set [1] (milk fat, 0.3 mg/kg, nominal 0.3 mg/kg single IM dose of ML/Rotavec Corona combination, milk fat, read-out: ML residue in milk fat, Day 7); 860 ng/g in data set [1] (milk fat, 0.4 mg/kg, nominal 0.4 mg/kg single IM dose of ML/Rotavec Corona combination, milk fat, read-out: ML residue in milk fat, Day 7); 40 ng/g in data set [1] (milk, 0.3 mg/kg, nominal 0.3 mg/kg single IM dose of ML/Rotavec Corona combination, milk (whole milk), read-out: ML residue in milk, Day 7); 50 ng/g in data set [1] (milk, 0.4 mg/kg, nominal 0.4 mg/kg single IM dose of ML/Rotavec Corona combination, milk (whole milk), read-out: ML residue in milk, Day 7). Further, the concentration at 14 day in data set [1] (milk fat, 0.3 mg/kg, nominal 0.3 mg/kg single IM dose of ML/Rotavec Corona combination, milk fat, read-out: ML residue in milk fat, Day 14) is 140 ng/g; in data set [1] (milk, 0.3 mg/kg, nominal 0.3 mg/kg single IM dose of ML/Rotavec Corona combination, milk (whole milk), read-out: ML residue in milk, Day 14) it was 7.8 ng/g. The concentration at 21 day in data set [1] (milk fat, 0.3 mg/kg, nominal 0.3 mg/kg single IM dose of ML/Rotavec Corona combination, milk fat, read-out: ML residue in milk fat, Day 21) was found to be 59 ng/g; in data set [1] (setting [4]) it was 2.6 ng/g. For the same compound, the “ML residue in milk, Day 7” value in data set [1] (setting [5]) is 0.063 mg/kg and 0.042 mg/kg and 0.034 mg/kg; in data set [1] (setting [6]), 0.044 mg/kg and 0.056 mg/kg and 0.037 mg/kg. For the same compound, the “ML residue in milk, Day 14” value was 0.010 mg/kg and 0.0099 mg/kg and 0.0079 mg/kg in data set [1] (setting [5]); 0.0081 mg/kg and 0.012 mg/kg and 0.015 mg/kg and 0.0069 mg/kg in data set [1] (setting [6]). Also, the “ML residue in milk, Day 21” value in data set [1] (setting [5]) was 0.0040 mg/kg and 0.0031 mg/kg and 0.0041 mg/kg; in data set [1] (setting [6]) it was 0.0055 mg/kg (2×) and 0.0037 mg/kg and 0.0023 mg/kg. For the same compound, the “ML residue in milk fat, Day 7” value in data set [1] (setting [8]) was 1.1 mg/kg and 1.0 mg/kg and 0.75 mg/kg; in data set [1] (setting [9]), 1.2 mg/kg and 1.5 mg/kg and 1.0 mg/kg. In addition, the “ML residue in milk fat, Day 14” value in data set [1] (setting [8]) was 0.26 mg/kg and 0.24 mg/kg and 0.18 mg/kg; in data set [1] (setting [9]) it was 0.17 mg/kg and 0.37 mg/kg and 0.47 mg/kg and 0.15 mg/kg. Also, the “ML residue in milk fat, Day 21” value in data set [1] (setting [8]) is 0.080 mg/kg and 0.068 mg/kg and 0.075 mg/kg; in data set [1] (setting [9]) it was 0.091 mg/kg and 0.12 mg/kg and 0.14 mg/kg and 0.057 mg/kg.
